# In patent US10081647B2, “Phosphate substituted quinolizine derivatives useful as HIV integrase inhibitors” (Merck Sharp & Dohme Corp., priority 2015, dated 2018):
# Read-outs that look alike come from different tables or passages of the source.
# System: HIV-1 (NL4-3 strain)
# Test: Assay for inhibition of HIV replication (MT4-gag-GFP reporter cell line, kinetic assay)
# Format: cell-based
# Settings: IP from 4-parameter dose response curve
# Method: This assay is useful for assessing the ability of a compound of the present inventiongin to inhibit HIV replication. The assay is a kinetic assay that employs a reporter cell line (MT4-gag-GFP) to quantify the number of new cells infected in each round of replication.
# MT4-GFP cells (250,000 cells/ml) are bulk-infected with HIV-1 (NL4-3 strain) at low multiplicity of infection (MOI) in RPMI+10% FBS for 24 hours. Cells are then washed once in RPMI+10% FBS and resuspended in RPMI+0% or 10% or 100% normal human serum (NHS). Test compounds are serial-diluted in DMSO using an ECHO liquid handler. The infected MT4-GFP cells are added to a 384-well poly-D-lysine coated black plate with clear bottom in which the diluted test compounds are placed. The cells are seeded at 8,000 cells per well and the final DMSO concentration is adjusted to 0.4%. The infected cells (Green GFP cells) are then quantified at both 24 and 48 hours post incubation using Acumen eX3. Viral reproductive ratio (R0) is determined using the number of infected cells at 48 hours divided by the number of infected cells at 24 hours. Percent viral growth inhibition is calculated by [1−(R−Rtripledrug)/(RDMSO−Rtripledrug)]*100. Compound potency IP or IC50 can be determined using a 4-parameter dose response curve analysis.
# [1] = infected MT4-GFP cells in 100% normal human serum, read-out: WILD TYPE CELL ASSAY Viking IP (100% NHS)
# [2] = infected MT4-GFP cells in RPMI + 0% normal human serum, read-out: WILD TYPE CELL ASSAY Viking IP (0% NHS)
# [3] = Human immunodeficiency virus 1, NL43, infected MT4-GFP cells in RPMI + 0% normal human serum, read-out: WILD TYPE CELL ASSAY Viking IP (0% NHS)
# [4] = Human immunodeficiency virus 1, NL43, infected MT4-GFP cells in 100% normal human serum, read-out: WILD TYPE CELL ASSAY Viking IP (100% NHS)
Structure (SMILES),IC50 [1] [nM],IC50 [2] [nM],IC50 [3] [nM],IC50 [4] [nM]
COC1Cn2cc(C(=O)NCc3ccc(F)cc3F)c(=O)c(O)c2C(=O)C1(C)COCCP(=O)(O)O (stereo not shown) [Compound 36],3600,629,–,–
CCOP(=O)(CCOCC1(C)C(=O)c2c(O)c(=O)c(C(=O)NCc3ccc(F)cc3F)cn2CC1OC)OCC (stereo not shown) [Compound 32],425,7.5,–,–
CCOP(=O)(CCOC1Cn2cc(C(=O)NCc3ccc(F)cc3F)c(=O)c(O)c2C(=O)C1(C)CCOC)OCC (stereo not shown) [Compound 78],580,17,–,–
CCOP(=O)(CCCOC1Cn2cc(C(=O)NCc3ccc(F)cc3F)c(=O)c(O)c2C(=O)C1(C)CCOC)OCC (stereo not shown) [Compound 91],600,31,–,–
CCOP(=O)(CCOCCC1(C)C(=O)c2c(O)c(=O)c(C(=O)NCc3ccc(F)cc3F)cn2CC1OC)OCC (stereo not shown) [Compound 54],223,11,–,–
CCOP(=O)(CCNC1Cn2cc(C(=O)NCc3ccc(F)cc3F)c(=O)c(O)c2C(=O)C1(C)C)OCC (stereo not shown) [Compound 101],891,–,50,–
CCOP(=O)(CCOCC1(C)C(=O)c2c(O)c(=O)c(C(=O)NCc3ccc(F)cc3F)cn2CC1OC)OCC (stereo not shown) [Compound 33],188,13,–,–
CCOP(=O)(CCOC1Cn2cc(C(=O)NCc3ccc(F)cc3F)c(=O)c(O)c2C(=O)C1(C)CCOC)OCC (stereo not shown) [Compound 77],128,5.5,–,–
CC1(C)C(=O)c2c(O)c(=O)c(C(=O)NCc3ccc(F)cc3F)cn2CC1OCCP(=O)(O)O (stereo not shown) [Compound 68],> 8000,> 1000,–,–
COCCC1(C)C(=O)c2c(O)c(=O)c(C(=O)NCc3ccc(F)cc3F)cn2CC1OCCP(=O)(OCOC(=O)OC(C)C)OCOC(=O)OC(C)C (stereo not shown) [Compound 87],21,0.8,–,–
CCOP(=O)(CCCOC1Cn2cc(C(=O)NCc3ccc(F)cc3F)c(=O)c(O)c2C(=O)C1(C)CCOC)OCC (stereo not shown) [Compound 92],2320,143,–,–
COC1Cn2cc(C(=O)NCc3ccc(F)cc3F)c(=O)c(O)c2C(=O)C1(C)CCOCCCP(=O)(O)O (stereo not shown) [Compound 48],–,–,626,6940
COC1Cn2cc(C(=O)NCc3ccc(F)cc3F)c(=O)c(O)c2C(=O)C1(C)CCOCCP(=O)(OCOC(=O)OC(C)C)OCOC(=O)OC(C)C (stereo not shown) [Compound 64],289,2.9,–,–
CCOP(=O)(CCCOC1Cn2cc(C(=O)NCc3ccc(F)cc3F)c(=O)c(O)c2C(=O)C1(C)C)OCC (stereo not shown) [Compound 72],923,26,–,–
COCCC1(C)C(=O)c2c(O)c(=O)c(C(=O)NCc3ccc(F)cc3F)cn2CC1OCCP(=O)(OCOC(=O)OC(C)C)OCOC(=O)OC(C)C (stereo not shown) [Compound 86],980,3.5,–,–
CCOP(=O)(CCOC1Cn2cc(C(=O)NCc3ccc(F)cc3F)c(=O)c(O)c2C(=O)C1(C)C)OCC (stereo not shown) [Compound 66],1280,19,–,–
CC1(C)C(=O)c2c(O)c(=O)c(C(=O)NCc3ccc(F)cc3F)cn2CC1OCCCP(=O)(O)O (stereo not shown) [Compound 74],> 8400,> 1050,–,–
COC1Cn2cc(C(=O)NCc3ccc(F)cc3F)c(=O)c(O)c2C(=O)C1(C)COCCP(=O)(OCOC(=O)OC(C)C)OCOC(=O)OC(C)C (stereo not shown) [Compound 43],1480,1.4,–,–
COC1Cn2cc(C(=O)NCc3ccc(F)cc3F)c(=O)c(O)c2C(=O)C1(C)CCOCCP(=O)(OCOC(=O)OC(C)C)OCOC(=O)OC(C)C (stereo not shown) [Compound 62],4700,14,–,–
COC1Cn2cc(C(=O)NCc3ccc(F)cc3F)c(=O)c(O)c2C(=O)C1(C)CCOCCP(=O)(O)O (stereo not shown) [Compound 58],> 8400,–,> 1050,–
CCOP(=O)(CCOC1Cn2cc(C(=O)NCc3ccc(F)cc3F)c(=O)c(O)c2C(=O)C1(C)CCOC)OCC (stereo not shown) [Compound 80],2750,378,–,–
COC1Cn2cc(C(=O)NCc3ccc(F)cc3F)c(=O)c(O)c2C(=O)C1(C)COCCP(=O)(OCOC(=O)OC(C)C)OCOC(=O)OC(C)C (stereo not shown) [Compound 42],407,1.2,–,–
COC1Cn2cc(C(=O)NCc3ccc(F)cc3F)c(=O)c(O)c2C(=O)C1(C)COCCP(=O)(O)O (stereo not shown) [Compound 38],6050,738,–,–
CCOP(=O)(CCOCCC1(C)C(=O)c2c(O)c(=O)c(C(=O)NCc3ccc(F)cc3F)cn2CC1OC)OCC (stereo not shown) [Compound 56],86,4.6,–,–
CCOP(=O)(CCCOC1Cn2cc(C(=O)NCc3ccc(F)cc3F)c(=O)c(O)c2C(=O)C1(C)C)OCC (stereo not shown) [Compound 71],173,9.5,–,–

Structure (SMILES),IC50 [1] [nM],IC50 [2] [nM],IC50 [3] [nM],IC50 [4] [nM]
CCOP(=O)(CCCOC1Cn2cc(C(=O)NCc3ccc(F)cc3F)c(=O)c(O)c2C(=O)C1(C)CCOC)OCC (stereo not shown) [Compound 89],211,15,–,–
COC1Cn2cc(C(=O)NCc3ccc(F)cc3F)c(=O)c(O)c2C(=O)C1(C)CCOCCCP(=O)(O)O (stereo not shown) [Compound 50],> 8400,> 1050,–,–
CCOP(=O)(CCNC1Cn2cc(C(=O)NCc3ccc(F)cc3F)c(=O)c(O)c2C(=O)C1(C)C)OCC (stereo not shown) [Compound 102],150,25,–,–
COC1Cn2cc(C(=O)NCc3ccc(F)cc3F)c(=O)c(O)c2C(=O)C1(C)COCCP(=O)(O)O (stereo not shown) [Compound 39],6930,337,–,–
COC1Cn2cc(C(=O)NCc3ccc(F)cc3F)c(=O)c(O)c2C(=O)C1(C)COCCP(=O)(OCOC(=O)OC(C)C)OCOC(=O)OC(C)C (stereo not shown) [Compound 41],> 8000,0.97,–,–
COCCC1(C)C(=O)c2c(O)c(=O)c(C(=O)NCc3ccc(F)cc3F)cn2CC1OCCP(=O)(O)O (stereo not shown) [Compound 83],5380,> 1000,–,–
CCOP(=O)(CCCOCCC1(C)C(=O)c2c(O)c(=O)c(C(=O)NCc3ccc(F)cc3F)cn2CC1OC)OCC (stereo not shown) [Compound 46],102,4.2,–,–
CCOP(=O)(CCCOC1Cn2cc(C(=O)NCc3ccc(F)cc3F)c(=O)c(O)c2C(=O)C1(C)CCOC)OCC (stereo not shown) [Compound 90],123,15,–,–
COCCC1(C)C(=O)c2c(O)c(=O)c(C(=O)NCc3ccc(F)cc3F)cn2CC1OCCP(=O)(O)O (stereo not shown) [Compound 82],> 8000,729,–,–
CCOP(=O)(CCOC1Cn2cc(C(=O)NCc3ccc(F)cc3F)c(=O)c(O)c2C(=O)C1(C)C)OCC (stereo not shown) [Compound 65],131,5.4,–,–
COC1Cn2cc(C(=O)NCc3ccc(F)cc3F)c(=O)c(O)c2C(=O)C1(C)CCOCCCP(=O)(O)O (stereo not shown) [Compound 49],> 8400,> 1050,–,–
COCCC1(C)C(=O)c2c(O)c(=O)c(C(=O)NCc3ccc(F)cc3F)cn2CC1OCCP(=O)(O)O (stereo not shown) [Compound 81],2120,665,–,–
COC1Cn2cc(C(=O)NCc3ccc(F)cc3F)c(=O)c(O)c2C(=O)C1(C)CCOCCP(=O)(O)O (stereo not shown) [Compound 59],4260,> 1050,–,–
COC1Cn2cc(C(=O)NCc3ccc(F)cc3F)c(=O)c(O)c2C(=O)C1(C)COCCP(=O)(O)O (stereo not shown) [Compound 37],> 8000,> 1000,–,–
CCOP(=O)(CCCOCCC1(C)C(=O)c2c(O)c(=O)c(C(=O)NCc3ccc(F)cc3F)cn2CC1OC)OCC (stereo not shown) [Compound 44],159,7.2,–,–
CCOP(=O)(CCOCCC1(C)C(=O)c2c(O)c(=O)c(C(=O)NCc3ccc(F)cc3F)cn2CC1OC)OCC (stereo not shown) [Compound 57],84,7,–,–
CC(C)OC(=O)OCOP(=O)(CCCOC1Cn2cc(C(=O)NCc3ccc(F)cc3F)c(=O)c(O)c2C(=O)C1(C)C)OCOC(=O)OC(C)C (stereo not shown) [Compound 76],2770,45,–,–
CCOP(=O)(CCOCC1(C)C(=O)c2c(O)c(=O)c(C(=O)NCc3ccc(F)cc3F)cn2CC1OC)OCC (stereo not shown) [Compound 35],86,3.5,–,–
CC(C)OC(=O)OCOP(=O)(CCOC1Cn2cc(C(=O)NCc3ccc(F)cc3F)c(=O)c(O)c2C(=O)C1(C)C)OCOC(=O)OC(C)C (stereo not shown) [Compound 70],2020,13,–,–
CCOP(=O)(CCOC1Cn2cc(C(=O)NCc3ccc(F)cc3F)c(=O)c(O)c2C(=O)C1(C)CCOC)OCC (stereo not shown) [Compound 79],177,15,–,–
COCCC1(C)C(=O)c2c(O)c(=O)c(C(=O)NCc3ccc(F)cc3F)cn2CC1OCCP(=O)(O)O (stereo not shown) [Compound 84],2930,492,–,–
CC1(C)C(=O)c2c(O)c(=O)c(C(=O)NCc3ccc(F)cc3F)cn2CC1OCCCP(=O)(O)O (stereo not shown) [Compound 73],–,–,836,> 8400
COC1Cn2cc(C(=O)NCc3ccc(F)cc3F)c(=O)c(O)c2C(=O)C1(C)CCOCCP(=O)(O)O (stereo not shown) [Compound 61],2500,970,–,–
CC(C)OC(=O)OCOP(=O)(CCOC1Cn2cc(C(=O)NCc3ccc(F)cc3F)c(=O)c(O)c2C(=O)C1(C)C)OCOC(=O)OC(C)C (stereo not shown) [Compound 69],25,1.1,–,–
CC1(C)C(=O)c2c(O)c(=O)c(C(=O)NCc3ccc(F)cc3F)cn2CC1NCCCP(=O)(O)O (stereo not shown) [Compound 108],–,–,95,1260
